In the OligoGym collection one finds target mRNA knockdown data, which are given here for 14 substances.

HELM strings list units from the 5' end as sugar, base in round brackets, then linkage (d deoxyribose, r ribose, m 2'-O-methyl, p phosphodiester). Strings are as the collection lists them, not checked against the first reports. ss, as = sense and antisense strand; [lna] = locked nucleic acid (LNA); [s4r] = 4'-thioribose; [fl2r] = 2'-fluoro
Further: test system not given here.

The conditions of this data set: siRNA.
Turning to “RNA1{r(G)p.r(G)p.r(G)p.r(A)p.r(G)p.r(G)p.r(A)p.[fl2r](U)p.[fl2r](G)p.r(A)p.[fl2r](C)p.r(A)p.r(A)p.r(A)p.r(G)p.r(A)p.r(A)p.r(G)p.r(C)p.r(T)p.r(T)}|RNA2{r(G)p.r(C)p.r(U)p.r(U)p.r(C)p.r(U)p.r(U)p.[fl2r](U)p.r(G)p.r(U)p.[fl2r](C)p.r(A)p.r(U)p.r(C)p.r(C)p.r(U)p.r(C)p.r(C)p.r(C)p.r(T)p.r(T)}$$$RNA1{StrandType:ss}|RNA2{StrandType:as}$”, the target mRNA knockdown was 78%.

As for “RNA1{m(U)p.r(A)p.m(G)p.r(C)p.m(C)p.r(A)p.m(G)p.r(A)p.m(G)p.r(C)p.m(C)p.r(A)p.m(A)p.r(A)p.r(G)p.m(A)p.r(A)p.r(G)p.r(C)p.r(T)p.r(T)}|RNA2{r(G)p.r(C)p.m(U)p.m(U)p.r(C)p.m(U)p.m(U)p.m(U)p.r(G)p.r(G)p.r(C)p.m(U)p.r(C)p.m(U)p.r(G)p.r(G)p.r(C)p.m(U)p.r(A)p.r(T)p.r(T)}$$$RNA1{StrandType:ss}|RNA2{StrandType:as}$”, the target mRNA knockdown amounted to 75%.

In turn, “RNA1{r(A)p.r(A)p.r(A)p.r(C)p.r(G)p.r(A)p.r(G)p.r(A)p.r(G)p.r(A)p.r(G)p.r(C)p.r(C)p.r(C)p.r(A)p.r(C)p.r(C)p.r(U)p.r(U)p.r(T)p.r(T)}|RNA2{r(A)p.r(A)p.r(G)p.r(G)p.m(U)p.r(G)p.r(G)p.r(G)p.r(C)p.r(U)p.r(C)p.r(U)p.r(C)p.r(U)p.r(C)p.r(G)p.r(U)p.r(U)p.r(U)p.r(T)p.r(T)}$$$RNA1{StrandType:ss}|RNA2{StrandType:as}$” showed a target mRNA knockdown of 57%.

For “RNA1{r(A)p.r(U)p.r(G)p.r(G)p.r(G)p.r(A)p.r(G)p.r(A)p.r(A)p.r(G)p.m(U)p.r(A)p.r(G)p.r(U)p.r(C)p.r(C)p.r(C)p.r(C)p.r(C)p.r(T)p.r(T)}|RNA2{r(G)p.r(G)p.r(G)p.r(G)p.r(G)p.r(A)p.r(C)p.m(U)p.r(A)p.r(C)p.r(U)p.r(U)p.r(C)p.r(U)p.r(C)p.r(C)p.r(C)p.r(A)p.r(U)p.r(T)p.r(T)}$$$RNA1{StrandType:ss}|RNA2{StrandType:as}$”, the target mRNA knockdown came to 84%.

Turning to “RNA1{r(A)p.r(C)p.r(C)p.r(U)p.[fl2r](U)p.r(A)p.r(A)p.r(G)p.r(G)p.r(A)p.r(C)p.r(C)p.r(A)p.r(C)p.r(C)p.r(G)p.r(G)p.r(A)p.r(U)p.r(T)p.r(T)}|RNA2{r(A)p.r(U)p.r(C)p.r(C)p.r(G)p.r(G)p.[fl2r](U)p.r(G)p.r(G)p.r(U)p.r(C)p.r(C)p.r(U)p.r(U)p.r(A)p.r(A)p.r(G)p.r(G)p.r(U)p.r(T)p.r(T)}$$$RNA1{StrandType:ss}|RNA2{StrandType:as}$”, the target mRNA knockdown was found to be 71%.

In turn, “RNA1{m(U)p.r(G)p.r(A)p.r(A)p.r(C)p.r(G)p.r(U)p.m(C)p.r(A)p.r(C)p.r(C)p.r(G)p.r(A)p.r(G)p.r(G)p.r(A)p.r(G)p.r(A)p.r(A)p.r(T)p.r(T)}|RNA2{r(U)p.r(U)p.r(C)p.r(U)p.r(C)p.r(C)p.r(U)p.r(C)p.r(G)p.r(G)p.m(U)p.r(G)p.r(A)p.r(C)p.r(G)p.r(U)p.r(U)p.m(C)p.r(A)p.r(T)p.r(T)}$$$RNA1{StrandType:ss}|RNA2{StrandType:as}$” yielded a target mRNA knockdown of 82%.

“RNA1{r(C)p.[fl2r](U)p.r(A)p.r(G)p.r(A)p.r(G)p.r(G)p.[fl2r](A)p.r(U)p.r(C)p.r(U)p.[fl2r](U)p.r(G)p.r(A)p.r(A)p.r(G)p.r(A)p.r(C)p.r(C)p.r(T)p.r(T)}|RNA2{r(G)p.r(G)p.r(U)p.r(C)p.r(U)p.r(U)p.r(C)p.r(A)p.r(A)p.r(G)p.r(A)p.r(U)p.r(C)p.r(C)p.r(U)p.r(C)p.[fl2r](U)p.r(A)p.r(G)p.r(T)p.r(T)}$$$RNA1{StrandType:ss}|RNA2{StrandType:as}$” yielded a target mRNA knockdown of 78%.

In turn, “RNA1{[s4r](C)p.[s4r](G)p.r(U)p.r(A)p.r(C)p.r(G)p.r(C)p.r(G)p.r(G)p.r(A)p.r(A)p.r(U)p.r(A)p.r(C)p.r(U)p.r(U)p.r(C)p.r(G)p.r(A)p.r(T)p.r(T)}|RNA2{[s4r](U)p.[s4r](C)p.r(G)p.r(A)p.r(A)p.r(G)p.r(U)p.r(A)p.r(U)p.r(U)p.r(C)p.r(C)p.r(G)p.r(C)p.r(G)p.r(U)p.r(A)p.[s4r](C)p.[s4r](G)p.r(T)p.r(T)}$$$RNA1{StrandType:ss}|RNA2{StrandType:as}$” yielded a target mRNA knockdown of 90.4%.

For “RNA1{r(C)p.r(G)p.r(U)p.r(A)p.r(C)p.r(G)p.r(C)p.r(G)p.r(G)p.r(A)p.r(A)p.r(U)p.r(A)p.r(C)p.r(U)p.r(U)p.r(C)p.r(G)p.r(A)p.r(T)p.r(T)}|RNA2{[s4r](U)p.r(C)p.r(G)p.r(A)p.r(A)p.r(G)p.[s4r](U)p.r(A)p.[s4r](U)p.[s4r](U)p.r(C)p.r(C)p.r(G)p.r(C)p.r(G)p.[s4r](U)p.r(A)p.r(C)p.r(G)p.r(T)p.r(T)}$$$RNA1{StrandType:ss}|RNA2{StrandType:as}$”, the target mRNA knockdown amounted to 79.5%.

Take “RNA1{m(A)p.r(C)p.m(G)p.r(U)p.m(C)p.r(A)p.m(C)p.r(C)p.m(G)p.r(A)p.m(G)p.r(G)p.m(A)p.r(G)p.m(A)p.r(A)p.m(G)p.r(U)p.m(A)p.r(T)p.r(T)}|RNA2{r(U)p.r(A)p.r(C)p.r(U)p.r(U)p.r(C)p.r(U)p.r(C)p.r(C)p.r(U)p.r(C)p.m(G)p.m(G)p.r(U)p.r(G)p.r(A)p.r(C)p.m(G)p.r(U)p.r(T)p.r(T)}$$$RNA1{StrandType:ss}|RNA2{StrandType:as}$”: the target mRNA knockdown was 31%.

The substance “RNA1{r(C)p.r(G)p.r(U)p.r(A)p.r(C)p.r(G)p.r(C)p.r(G)p.r(G)p.r(A)p.r(A)p.r(U)p.r(A)p.[s4r](C)p.[s4r](U)p.[s4r](U)p.[s4r](C)p.[s4r](G)p.[s4r](A)p.r(T)p.r(T)}|RNA2{r(U)p.r(C)p.r(G)p.r(A)p.r(A)p.r(G)p.r(U)p.r(A)p.r(U)p.r(U)p.r(C)p.r(C)p.r(G)p.r(C)p.r(G)p.r(U)p.r(A)p.r(C)p.r(G)p.r(T)p.r(T)}$$$RNA1{StrandType:ss}|RNA2{StrandType:as}$” displayed a target mRNA knockdown of 93.8%.

Substance “RNA1{r(C)p.r(U)p.r(U)p.r(A)p.r(C)p.r(G)p.r(C)p.r(U)p.r(G)p.r(A)p.r(G)p.r(U)p.r(A)p.r(C)p.r(U)p.r(U)p.r(C)p.r(G)p.r(A)p.r(T)p.r(T)}|RNA2{[lna](T)p.r(C)p.r(G)p.r(A)p.r(A)p.r(G)p.[lna](T)p.r(A)p.r(C)p.[lna](T)p.r(C)p.r(A)p.r(G)p.r(C)p.r(G)p.[lna](T)p.r(A)p.r(A)p.r(G)p.[lna](T)p.[lna](T)}$$$RNA1{StrandType:ss}|RNA2{StrandType:as}$” gave a target mRNA knockdown of 19%.

On to “RNA1{r(C)p.r(U)p.r(C)p.r(A)p.r(A)p.r(A)p.r(U)p.r(C)p.r(A)p.r(A)p.r(G)p.r(G)p.r(C)p.r(C)p.r(G)p.r(G)p.r(A)p.r(G)p.r(U)p.r(T)p.r(T)}|RNA2{r(A)p.r(C)p.r(U)p.r(C)p.r(C)p.r(G)p.r(G)p.r(C)p.r(C)p.r(U)p.m(U)p.r(G)p.r(A)p.r(U)p.r(U)p.m(U)p.r(G)p.r(A)p.r(G)p.r(T)p.r(T)}$$$RNA1{StrandType:ss}|RNA2{StrandType:as}$”, for which the target mRNA knockdown came to 85%.

Substance “RNA1{r(A)p.r(G)p.r(C)p.r(C)p.r(U)p.r(C)p.m(C)p.r(A)p.r(A)p.r(A)p.r(C)p.r(U)p.r(C)p.r(C)p.m(U)p.r(A)p.r(G)p.r(C)p.r(U)p.r(T)p.r(T)}|RNA2{r(A)p.r(G)p.r(C)p.m(U)p.r(A)p.r(G)p.r(G)p.r(A)p.r(G)p.r(U)p.r(U)p.m(U)p.r(G)p.r(G)p.r(A)p.r(G)p.r(G)p.r(C)p.r(U)p.r(T)p.r(T)}$$$RNA1{StrandType:ss}|RNA2{StrandType:as}$” came in with a target mRNA knockdown of 65%.
